# Experimental data: ChEMBL document CHEMBL4425188, “Synthesis and immunostimulatory activity of substituted TLR7 agonists” (Bioorg Med Chem Lett, 2016)
# Activity calls are given as the source filed them. No cut-off for these calls is given here.
# What was measured:
# [1] = target: T1, Toll-like receptor 8 (Homo sapiens) (UniProt Q9NR97); test: Agonist activity at human TLR8 expressed in HEK293 cells at 5 to 1000 ng/ml by QUANTI-blue SEAP reporter gene assay; type: cell-based
# T1 sequence (whole entry): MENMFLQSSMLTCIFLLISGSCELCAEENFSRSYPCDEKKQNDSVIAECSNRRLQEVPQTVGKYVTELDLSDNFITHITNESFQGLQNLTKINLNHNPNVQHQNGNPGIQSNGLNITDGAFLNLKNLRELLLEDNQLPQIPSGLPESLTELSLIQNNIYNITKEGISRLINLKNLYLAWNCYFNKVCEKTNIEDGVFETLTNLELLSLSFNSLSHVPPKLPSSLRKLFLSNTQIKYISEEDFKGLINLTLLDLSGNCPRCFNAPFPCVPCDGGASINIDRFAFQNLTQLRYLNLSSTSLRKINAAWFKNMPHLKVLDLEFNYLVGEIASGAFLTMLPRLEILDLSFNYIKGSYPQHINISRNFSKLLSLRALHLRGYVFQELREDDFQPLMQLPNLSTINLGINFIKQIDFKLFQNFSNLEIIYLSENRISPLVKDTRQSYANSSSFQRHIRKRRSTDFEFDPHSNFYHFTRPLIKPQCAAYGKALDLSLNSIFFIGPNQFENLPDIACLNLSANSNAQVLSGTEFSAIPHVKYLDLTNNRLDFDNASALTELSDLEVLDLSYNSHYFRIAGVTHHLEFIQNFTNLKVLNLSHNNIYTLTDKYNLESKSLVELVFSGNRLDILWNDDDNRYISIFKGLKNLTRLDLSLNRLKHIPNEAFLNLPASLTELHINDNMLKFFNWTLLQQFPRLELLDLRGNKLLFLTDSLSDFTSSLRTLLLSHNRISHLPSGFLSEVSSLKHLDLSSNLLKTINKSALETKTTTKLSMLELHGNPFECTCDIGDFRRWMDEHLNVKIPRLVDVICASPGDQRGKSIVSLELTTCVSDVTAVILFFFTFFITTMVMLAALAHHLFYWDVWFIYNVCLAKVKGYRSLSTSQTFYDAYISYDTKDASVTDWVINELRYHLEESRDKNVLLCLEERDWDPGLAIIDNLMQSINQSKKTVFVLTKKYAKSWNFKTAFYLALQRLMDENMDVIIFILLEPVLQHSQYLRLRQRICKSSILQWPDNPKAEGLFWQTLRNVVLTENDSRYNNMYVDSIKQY
# [2] = target: T2, Toll-like receptor 9 (Homo sapiens) (UniProt Q9NR96); test: Agonist activity at human TLR9 expressed in HEK293 cells at 5 to 1000 ng/ml by QUANTI-blue SEAP reporter gene assay; type: cell-based
# T2 sequence (whole entry): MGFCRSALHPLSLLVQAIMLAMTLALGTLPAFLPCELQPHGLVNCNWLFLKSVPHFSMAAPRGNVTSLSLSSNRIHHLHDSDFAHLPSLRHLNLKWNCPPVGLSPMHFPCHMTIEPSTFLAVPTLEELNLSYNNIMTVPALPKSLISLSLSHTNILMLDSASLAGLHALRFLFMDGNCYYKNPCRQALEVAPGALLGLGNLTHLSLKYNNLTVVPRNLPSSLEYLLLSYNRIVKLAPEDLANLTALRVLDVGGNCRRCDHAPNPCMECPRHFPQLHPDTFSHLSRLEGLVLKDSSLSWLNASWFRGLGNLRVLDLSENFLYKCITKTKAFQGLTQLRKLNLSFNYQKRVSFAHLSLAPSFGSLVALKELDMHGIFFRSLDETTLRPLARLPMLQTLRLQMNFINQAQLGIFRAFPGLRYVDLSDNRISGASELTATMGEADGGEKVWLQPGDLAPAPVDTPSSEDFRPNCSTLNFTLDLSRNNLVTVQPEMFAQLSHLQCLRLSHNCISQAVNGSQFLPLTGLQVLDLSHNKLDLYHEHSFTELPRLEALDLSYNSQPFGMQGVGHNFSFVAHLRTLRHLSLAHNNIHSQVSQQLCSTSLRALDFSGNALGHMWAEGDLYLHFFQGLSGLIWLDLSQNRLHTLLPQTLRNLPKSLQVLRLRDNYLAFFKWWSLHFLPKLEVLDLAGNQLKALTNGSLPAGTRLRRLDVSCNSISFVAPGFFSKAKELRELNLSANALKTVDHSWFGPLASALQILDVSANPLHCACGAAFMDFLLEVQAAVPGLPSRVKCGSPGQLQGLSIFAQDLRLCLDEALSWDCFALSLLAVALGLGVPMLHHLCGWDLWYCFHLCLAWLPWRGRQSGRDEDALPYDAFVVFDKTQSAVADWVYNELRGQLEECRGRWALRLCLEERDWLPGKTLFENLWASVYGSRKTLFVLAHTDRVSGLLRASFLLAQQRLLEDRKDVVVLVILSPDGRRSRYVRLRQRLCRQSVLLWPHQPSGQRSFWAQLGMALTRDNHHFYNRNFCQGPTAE
# [3] = test system: HEK293; test: Induction of SEAP reporter gene expression in TLR-deficient HEK293 cells at 5 to 1000 ng/ml; type: functional, cell-based; conditions: Homo sapiens
# [4] = target: T3, Toll-like receptor 7 (Homo sapiens) (UniProt Q9NYK1); test: Agonist activity at human TLR7 expressed in HEK293 cells at <= 500 ng/ml by QUANTI-blue SEAP reporter gene assay; type: cell-based
# T3 sequence (whole entry): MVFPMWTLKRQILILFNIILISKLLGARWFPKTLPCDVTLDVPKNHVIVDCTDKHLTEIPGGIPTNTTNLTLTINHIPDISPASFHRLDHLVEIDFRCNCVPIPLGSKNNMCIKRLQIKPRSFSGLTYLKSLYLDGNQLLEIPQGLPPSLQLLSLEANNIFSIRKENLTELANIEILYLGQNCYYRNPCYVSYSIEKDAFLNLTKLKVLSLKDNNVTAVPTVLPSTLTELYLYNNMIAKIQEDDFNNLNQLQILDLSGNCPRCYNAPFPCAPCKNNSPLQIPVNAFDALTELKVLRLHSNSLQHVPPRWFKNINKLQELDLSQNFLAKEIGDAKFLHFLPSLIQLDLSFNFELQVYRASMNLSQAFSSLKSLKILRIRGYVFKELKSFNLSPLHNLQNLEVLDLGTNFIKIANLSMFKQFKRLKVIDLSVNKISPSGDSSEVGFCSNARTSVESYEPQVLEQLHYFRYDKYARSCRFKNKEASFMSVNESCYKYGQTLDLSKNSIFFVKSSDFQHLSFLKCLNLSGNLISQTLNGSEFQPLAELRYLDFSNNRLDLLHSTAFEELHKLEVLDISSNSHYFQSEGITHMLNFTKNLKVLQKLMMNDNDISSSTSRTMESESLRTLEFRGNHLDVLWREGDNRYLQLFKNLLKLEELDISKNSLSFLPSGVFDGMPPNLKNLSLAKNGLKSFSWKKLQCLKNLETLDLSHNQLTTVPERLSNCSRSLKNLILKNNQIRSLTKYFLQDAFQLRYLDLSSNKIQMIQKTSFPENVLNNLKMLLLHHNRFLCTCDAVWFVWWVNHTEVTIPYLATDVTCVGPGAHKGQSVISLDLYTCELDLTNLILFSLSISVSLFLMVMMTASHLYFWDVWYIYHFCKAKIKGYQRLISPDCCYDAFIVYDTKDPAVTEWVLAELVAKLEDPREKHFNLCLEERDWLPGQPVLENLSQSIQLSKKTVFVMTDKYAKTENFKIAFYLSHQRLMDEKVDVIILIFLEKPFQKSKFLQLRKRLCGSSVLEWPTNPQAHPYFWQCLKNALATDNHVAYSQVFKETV
# [5] = test system: T-cell; test: Immunostimulatory activity in CFSE-labeled human T cells assessed as TLR7 agonist-induced cell proliferation at 2 to 200 nM after 6 days by FACS analysis; type: functional, cell-based
# [6] = test system: B cell; test: Immunostimulatory activity in CFSE-labeled human B cells assessed as TLR7 agonist-induced cell proliferation after 6 days by FACS analysis; type: functional, cell-based; conditions: 144 h
# [7] = organism: Homo sapiens; test: Immunostimulatory activity in CFSE-labeled human NK cells assessed as TLR7 agonist-induced cell proliferation at 2 to 200 nM after 6 days by FACS analysis; type: functional
Compound,Activity [1],Activity [2],Activity [4],Activity [3],Activity [5],EC50 [6],Activity [7]
CCCCOc1nc(N)c2nc(O)n(Cc3ccc(C(=O)NCCNC(=O)C4CCC(CN5C(=O)C=CC5=O)CC4)cc3)c2n1 (centres undefined),inactive,inactive,Active,inactive,,,
CCCCOc1nc(N)c2nc(NC)n(Cc3ccccc3)c2n1,inactive,inactive,Active,inactive,inactive,969 nM,inactive

# Continued, in another order:
Activity [1],Activity [2],Activity [4],Compound,Activity [3],Activity [5],EC50 [6],Activity [7]
inactive,inactive,Active,CCCCOc1nc(N)c2nc(O)n(Cc3ccc(C(=O)NCCC(=O)N4Cc5ccccc5C#Cc5ccccc54)cc3)c2n1,inactive,,,
inactive,inactive,Active,CCCCOc1nc(N)c2nc(O)n(Cc3ccc(C(=O)NCCOCCOCCNC(=O)OC(C)(C)C)cc3)c2n1,inactive,inactive,46.4 nM,inactive
inactive,inactive,Active,CCCCOc1nc(N)c2nc(O)n(Cc3ccc(C(=O)NCc4ccc(OC)cc4)cc3)c2n1,inactive,inactive,60.5 nM,inactive
